Results from publication PMC12721191, “Oxidative hypoxia drives TGF-β1–induced fibrosis under normoxia” (Redox Biology, 2025).

Tests used:
A549 = experiment: Western blot of HIF-1α, fibrosis and EMT markers in A549; assay type: cell-based, human
CYP2A6 = biological target: T1, CYP2A6 (Homo sapiens, UniProt P11509); experiment: Cytochrome P450 inhibition assay in HLMs; assay type: in vitro ADME; conditions: Coumarin 7-hydroxylation, pooled HLMs, up to 50 μM
T1 construct: tissue Xenotech H0630; host or cells: pooled human liver microsomes
T1 sequence (P11509 1-494): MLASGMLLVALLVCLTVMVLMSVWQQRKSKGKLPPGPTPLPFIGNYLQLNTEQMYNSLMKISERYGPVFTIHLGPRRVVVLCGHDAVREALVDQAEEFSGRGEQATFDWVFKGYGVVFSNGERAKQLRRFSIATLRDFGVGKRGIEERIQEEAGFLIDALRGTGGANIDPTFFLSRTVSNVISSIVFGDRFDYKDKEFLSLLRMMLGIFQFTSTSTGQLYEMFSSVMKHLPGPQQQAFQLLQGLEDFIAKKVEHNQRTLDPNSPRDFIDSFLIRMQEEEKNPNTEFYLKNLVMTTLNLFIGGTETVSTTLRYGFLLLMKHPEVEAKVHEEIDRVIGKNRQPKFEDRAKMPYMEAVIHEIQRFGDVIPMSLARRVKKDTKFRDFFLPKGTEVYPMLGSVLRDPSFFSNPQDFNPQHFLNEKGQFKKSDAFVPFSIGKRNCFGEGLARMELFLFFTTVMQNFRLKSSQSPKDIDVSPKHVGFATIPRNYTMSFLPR
Protocol: (§1) Cytochrome P450 Inhibition Assay: […] All experiments were performed in triplicate. Phenacetin O-deethylase, coumarin hydroxylase, bupropion hydroxylase, amodiaquine N-deethylase, tolbutamide 4-hydroxylase, S-mephenytoin hydroxylase, dextromethorphan O-demethylase, chlorozoxazone 6-hydroxylase, and midazolam 1’-hydroxylase activities were determined as probe activities for CYP1A2, CYP2A6, CYP2B6, CYP2C8, CYP2C9, CYP2C19, CYP2D6, CYP2E1, and CYP3A, respectively, using cocktail incubation and tandem mass spectrometry, as described previously^2,3.

CYP1A2 = biological target: T2, CYP1A2 (Homo sapiens, UniProt P05177); experiment: Cytochrome P450 inhibition assay in HLMs; assay type: in vitro ADME; conditions: Phenacetin O-deethylation, pooled HLMs, up to 50 μM
T2 sequence (P05177 1-516): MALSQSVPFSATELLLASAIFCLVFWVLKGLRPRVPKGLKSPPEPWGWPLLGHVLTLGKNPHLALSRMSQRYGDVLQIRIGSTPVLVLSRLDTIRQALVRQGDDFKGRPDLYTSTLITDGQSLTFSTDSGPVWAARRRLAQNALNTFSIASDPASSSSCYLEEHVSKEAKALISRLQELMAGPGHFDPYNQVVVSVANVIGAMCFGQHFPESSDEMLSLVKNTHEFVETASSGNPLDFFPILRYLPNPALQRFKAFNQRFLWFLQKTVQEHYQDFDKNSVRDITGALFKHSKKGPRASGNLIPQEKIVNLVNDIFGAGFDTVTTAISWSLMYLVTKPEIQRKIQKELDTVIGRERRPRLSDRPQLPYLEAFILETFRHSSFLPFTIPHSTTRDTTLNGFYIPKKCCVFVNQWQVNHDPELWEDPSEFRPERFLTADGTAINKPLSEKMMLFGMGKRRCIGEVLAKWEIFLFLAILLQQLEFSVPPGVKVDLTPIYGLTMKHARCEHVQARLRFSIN
Protocol: as §1

CYP2D6 = biological target: T3, CYP2D6 (Homo sapiens, UniProt P10635); experiment: Cytochrome P450 inhibition assay in HLMs; assay type: in vitro ADME; conditions: Dextromethorphan O-demethylation, pooled HLMs, up to 50 μM
T3 construct: tissue Xenotech H0630; host or cells: pooled human liver microsomes
Protocol: as §1

CYP2C9 = biological target: T4, CYP2C9 (Homo sapiens, UniProt P11712); experiment: Cytochrome P450 inhibition assay in HLMs; assay type: in vitro ADME; conditions: Diclofenac 4-hydroxylation, pooled HLMs, up to 50 μM
T4 construct: tissue Xenotech H0630; host or cells: pooled human liver microsomes
Protocol: as §1

CYP2E1 = biological target: T5, CYP2E1 (Homo sapiens, UniProt P05181); experiment: Cytochrome P450 inhibition assay in HLMs; assay type: in vitro ADME; conditions: Chlorozoxazone 6-hydroxylation, pooled HLMs, up to 50 μM
T5 construct: tissue Xenotech H0630; host or cells: pooled human liver microsomes
Protocol: as §1

CYP2B6 = biological target: T6, CYP2B6 (Homo sapiens, UniProt P20813); experiment: Cytochrome P450 inhibition assay in HLMs; assay type: in vitro ADME; conditions: Bupropion hydroxylation, pooled HLMs, up to 50 μM
T6 construct: tissue Xenotech H0630; host or cells: pooled human liver microsomes
T6 sequence (P20813 1-491): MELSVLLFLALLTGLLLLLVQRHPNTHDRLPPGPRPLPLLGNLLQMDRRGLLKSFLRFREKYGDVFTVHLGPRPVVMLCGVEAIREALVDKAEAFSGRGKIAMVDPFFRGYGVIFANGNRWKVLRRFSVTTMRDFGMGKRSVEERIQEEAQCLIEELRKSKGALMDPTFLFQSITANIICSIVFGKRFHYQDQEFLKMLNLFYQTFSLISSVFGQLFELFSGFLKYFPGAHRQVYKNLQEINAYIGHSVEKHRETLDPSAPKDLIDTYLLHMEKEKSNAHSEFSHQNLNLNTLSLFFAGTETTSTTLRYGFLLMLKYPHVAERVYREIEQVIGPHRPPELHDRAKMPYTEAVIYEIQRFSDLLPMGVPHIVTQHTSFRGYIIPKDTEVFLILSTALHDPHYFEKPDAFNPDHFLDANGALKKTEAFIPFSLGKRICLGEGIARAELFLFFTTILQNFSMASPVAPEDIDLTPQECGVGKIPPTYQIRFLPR
Protocol: as §1

CYP3A = CYP3A (Homo sapiens, UniProt P08684); experiment: Cytochrome P450 inhibition assay in HLMs; assay type: in vitro ADME; conditions: pooled human liver microsomes, probe midazolam (1'-hydroxylation), up to 50 μM
Protocol: as §1

MRC-5 = experiment: Western blot of fibrosis markers in MRC-5; assay type: cell-based, human; conditions: MRC-5, TGF-β1 and ACF-2 co-treatment
Protocol: RIPA lysates (BCA-normalized) were resolved by SDS-PAGE, transferred to nitrocellulose, and probed with the antibodies listed in Appendix S2. Protocols & Materials.
Cells were lysed in RIPA buffer supplemented with a Protease Inhibitor Cocktail. Protein concentrations were determined using the SMART™ BCA Protein Assay Kit. Equal amounts of protein were separated by SDS-PAGE and transferred onto nitrocellulose membranes. Membranes were blocked with 5% skim milk in TBST and incubated overnight at 4 °C with the primary antibodies indicated below. Membranes were then washed and incubated for 1 hr at room temperature with the appropriate secondary antibodies. Protein bands were visualized using the Davinch Western Imaging system according to the manufacturer’s instructions. Band intensities were quantified using ImageJ software after background subtraction. The signal intensity of each target protein was normalized to the corresponding GAPDH band, and values were further normalized to the control group (set to 1 for each independent experiment).

T5 sequence (P05181 whole entry): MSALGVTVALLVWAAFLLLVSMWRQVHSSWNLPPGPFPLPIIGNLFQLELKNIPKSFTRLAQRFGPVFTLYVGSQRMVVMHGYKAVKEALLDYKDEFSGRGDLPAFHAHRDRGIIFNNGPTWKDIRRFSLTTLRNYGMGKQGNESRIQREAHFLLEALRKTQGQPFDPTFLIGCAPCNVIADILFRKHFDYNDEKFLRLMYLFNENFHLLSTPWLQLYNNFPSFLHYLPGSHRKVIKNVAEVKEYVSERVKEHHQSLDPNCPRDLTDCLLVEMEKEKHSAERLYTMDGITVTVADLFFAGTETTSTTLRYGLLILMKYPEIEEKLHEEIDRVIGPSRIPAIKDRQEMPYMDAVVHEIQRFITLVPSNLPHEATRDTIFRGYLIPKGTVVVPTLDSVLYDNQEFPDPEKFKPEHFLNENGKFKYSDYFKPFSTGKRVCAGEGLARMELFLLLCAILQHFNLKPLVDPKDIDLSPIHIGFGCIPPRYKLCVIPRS
Sequence of CYP3A (P08684 2-503): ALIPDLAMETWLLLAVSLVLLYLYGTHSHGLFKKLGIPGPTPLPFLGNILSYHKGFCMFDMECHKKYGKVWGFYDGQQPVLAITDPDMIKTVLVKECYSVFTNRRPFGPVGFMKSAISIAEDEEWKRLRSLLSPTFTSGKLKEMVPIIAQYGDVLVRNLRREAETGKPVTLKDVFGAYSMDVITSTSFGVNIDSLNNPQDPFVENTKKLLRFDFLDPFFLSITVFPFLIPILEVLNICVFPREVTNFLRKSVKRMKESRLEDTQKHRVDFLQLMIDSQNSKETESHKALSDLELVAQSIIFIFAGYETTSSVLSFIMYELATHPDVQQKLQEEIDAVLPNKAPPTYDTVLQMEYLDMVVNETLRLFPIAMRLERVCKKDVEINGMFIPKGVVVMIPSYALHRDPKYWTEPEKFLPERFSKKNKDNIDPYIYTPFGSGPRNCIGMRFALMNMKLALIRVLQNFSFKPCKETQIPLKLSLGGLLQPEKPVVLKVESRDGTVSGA
T3 sequence (P10635 whole entry): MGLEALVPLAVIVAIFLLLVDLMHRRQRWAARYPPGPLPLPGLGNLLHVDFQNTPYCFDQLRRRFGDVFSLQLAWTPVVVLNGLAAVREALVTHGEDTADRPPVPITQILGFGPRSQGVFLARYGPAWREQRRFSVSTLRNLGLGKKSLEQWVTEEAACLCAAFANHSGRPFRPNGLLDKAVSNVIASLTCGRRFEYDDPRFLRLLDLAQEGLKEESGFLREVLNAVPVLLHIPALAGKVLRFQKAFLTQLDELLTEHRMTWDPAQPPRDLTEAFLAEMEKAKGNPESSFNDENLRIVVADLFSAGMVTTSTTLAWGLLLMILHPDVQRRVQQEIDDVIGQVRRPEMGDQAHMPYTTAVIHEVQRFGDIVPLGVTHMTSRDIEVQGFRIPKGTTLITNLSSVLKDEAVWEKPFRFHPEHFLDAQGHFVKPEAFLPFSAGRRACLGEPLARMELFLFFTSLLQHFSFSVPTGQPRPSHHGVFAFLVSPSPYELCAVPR
T4 sequence (P11712 whole entry): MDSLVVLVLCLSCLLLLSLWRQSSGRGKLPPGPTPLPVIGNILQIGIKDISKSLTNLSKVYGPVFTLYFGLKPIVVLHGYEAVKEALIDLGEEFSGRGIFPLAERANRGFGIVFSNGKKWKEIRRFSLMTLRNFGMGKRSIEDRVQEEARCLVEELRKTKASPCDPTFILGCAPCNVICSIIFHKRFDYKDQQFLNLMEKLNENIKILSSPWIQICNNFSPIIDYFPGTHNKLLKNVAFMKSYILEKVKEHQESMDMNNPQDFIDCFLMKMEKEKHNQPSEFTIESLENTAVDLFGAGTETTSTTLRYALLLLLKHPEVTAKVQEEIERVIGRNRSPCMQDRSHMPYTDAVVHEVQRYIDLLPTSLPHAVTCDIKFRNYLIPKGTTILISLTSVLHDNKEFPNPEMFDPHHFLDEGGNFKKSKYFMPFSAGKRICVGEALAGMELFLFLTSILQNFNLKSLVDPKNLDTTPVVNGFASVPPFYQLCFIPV

IC50 (CYP2A6): > 50 µM
IC50 (CYP1A2): > 50 µM
IC50 (CYP2D6): 40.2 ± 12.4 µM
IC50 (CYP2C9): 18.1 ± 4.61 µM
IC50 (CYP2E1): > 50 µM
IC50 (CYP2B6): > 50 µM
IC50 (CYP3A): > 50 µM
SMILES: COc1ccc(-c2c(-c3ccc(O)c(OC)c3)oc3cc(OC)c(OC)cc3c2=O)cc1 [ACF-2]
BLM-induced HIF-1α levels (Western blot) (A549; A549, BLM 15 μM, 10 h): effectively suppressed
fibronectin, α-SMA, N-cadherin (Western blot) (A549; A549, TGF-β1 24 h, ACF-2 7 μM): coordinated suppression of fibrosis markers (fibronectin, α-SMA) and EMT marker (N-cadherin)
COL3A1 and COL4A6 (Western blot) (A549; A549, TGF-β1 24 h, ACF-2 co-treatment): dose-dependent reduction of fibrosis markers COL3A1 and COL4A6
Fibronectin, COL4A6, α-SMA (Western blot) (MRC-5): same dose-dependent antifibrotic response
